Test results: patent US10323038B2, “Pyrazole compounds and methods of making and using same” (ABIDE THERAPEUTICS, INC., priority 2015, dated 2019)

Columns and labels:
FAAH = FAAH (Mus musculus (Mouse), UniProt O08914); experiment: In vitro competitive activity-based protein profiling, FAAH (mouse); format: biochemical; settings: for inhibition at 1 µM: read-out: FAAH % inh. 1 μM (mouse)
Protocol: (§1) In Vitro Competitive Activity-Based Protein Profiling.
(§2) Proteomes (mouse brain membrane fraction or cell lysates for mouse assays; human prefrontal cortex or cell membrane fractions for human assays) (50 μL, 1.0 mg/mL total protein concentration) were preincubated with varying concentrations of inhibitors at 37° C. After 30 min, FP—Rh or HT-01 (1.0 μL, 50 μM in DMSO) was added and the mixture was incubated for another 30 min at 37° C. Reactions were quenched with SDS loading buffer (15 μL-4×) and run on SDS-PAGE. Following gel imaging, serine hydrolase activity was determined by measuring fluorescent intensity of gel bands corresponding to MAGL and FAAH using ImageJ 1.43u software.

MAGL = MAGL (Mus musculus (Mouse), UniProt O35678); experiment: In vitro competitive activity-based protein profiling, MAGL (mouse); format: biochemical; settings: for inhibition at 1 µM: read-out: MAGL % inh. 1 μM (mouse)
Chain of MAGL (O35678 whole entry): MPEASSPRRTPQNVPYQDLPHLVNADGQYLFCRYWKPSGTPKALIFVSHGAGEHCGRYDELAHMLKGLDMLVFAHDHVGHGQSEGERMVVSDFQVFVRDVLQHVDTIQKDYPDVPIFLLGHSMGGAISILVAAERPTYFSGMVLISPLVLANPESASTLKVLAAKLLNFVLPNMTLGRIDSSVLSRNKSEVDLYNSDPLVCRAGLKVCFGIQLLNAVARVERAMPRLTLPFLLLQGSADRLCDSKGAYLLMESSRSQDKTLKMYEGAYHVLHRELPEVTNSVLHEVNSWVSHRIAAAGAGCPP
Protocol: as §1, §2

Chain of FAAH (O08914 whole entry): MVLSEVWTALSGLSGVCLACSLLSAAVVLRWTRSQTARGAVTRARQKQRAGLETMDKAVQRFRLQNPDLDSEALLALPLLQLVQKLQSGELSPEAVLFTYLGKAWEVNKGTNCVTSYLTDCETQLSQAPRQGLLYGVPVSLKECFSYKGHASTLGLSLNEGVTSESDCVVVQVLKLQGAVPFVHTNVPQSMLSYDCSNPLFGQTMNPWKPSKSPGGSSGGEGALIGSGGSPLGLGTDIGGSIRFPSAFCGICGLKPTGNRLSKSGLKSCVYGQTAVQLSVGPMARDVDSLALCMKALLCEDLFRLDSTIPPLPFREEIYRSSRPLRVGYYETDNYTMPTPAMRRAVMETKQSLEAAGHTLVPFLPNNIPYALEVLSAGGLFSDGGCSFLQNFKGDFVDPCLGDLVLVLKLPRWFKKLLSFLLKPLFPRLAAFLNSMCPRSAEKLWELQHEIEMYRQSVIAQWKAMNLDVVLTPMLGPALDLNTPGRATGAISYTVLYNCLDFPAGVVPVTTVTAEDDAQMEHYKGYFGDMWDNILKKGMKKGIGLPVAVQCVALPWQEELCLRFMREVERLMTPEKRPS

inhibition at 1 µM (FAAH)	inhibition at 1 µM (MAGL)	IC50 (FAAH)	IC50 (MAGL)	SMILES
≥ 75%	≥ 75%	–	–	CC(=O)N(C)c1cnn(C(=O)N2C[C@H]3C[C@@H](N(C)Cc4cc(N5CCCC5)cc(C(F)(F)F)c4)C[C@H]3C2)c1 [Example 154, N-methyl-N-(1-(cis-5-(methyl(3-(pyrrolidin-1-yl)-5-(trifluoromethyl)benzyl)amino)octahydrocyclopenta[c]pyrrole-2-carbonyl)-1H-pyrazol-4-yl)acetamide]
≥ 75%	0 to 25%	100 to 1000 nM	1000 to 10000 nM	CS(=O)(=O)Nc1cnn(C(=O)N2CC3CN(Cc4cccc(Cl)c4)CC3C2)c1 (centres unmarked) [Example 7, N-(1-(5-(3-chlorobenzyl)octahydropyrrolo[3,4-c]pyrrole-2-carbonyl)-1H-pyrazol-4-yl)methanesulfonamide]
≥ 75%	≥ 75%	≤ 100 nM	≤ 100 nM	CC(=O)N(C)c1cnn(C(=O)N2CC3CN(Cc4cc(Cl)cc(OCc5ccccc5)c4)CC3C2)c1 (centres unmarked) [Example 251, N-(1-(5-(3-(benzyloxy)-5-chlorobenzyl)octahydropyrrolo[3,4-c]pyrrole-2-carbonyl)-1H-pyrazol-4-yl)-N-methylacetamide]
≥ 75%	≥ 75%	–	–	CC(=O)N(C)c1cnn(C(=O)N2CC3CN(Cc4cccc(OCc5ccc(Cl)cc5)c4)CC3C2)c1 (centres unmarked) [Example 249, N-(1-(5-(3-((4-chlorobenzyl)oxy)benzyl)octahydropyrrolo[3,4-c]pyrrole-2-carbonyl)-1H-pyrazol-4-yl)-N-methylacetamide]
≥ 75%	≥ 75%	–	–	CC(=O)N(C)c1cnn(C(=O)N2C[C@H]3C[C@H](N(C)Cc4cc(N5CCCC5)ccc4C(F)(F)F)C[C@H]3C2)c1 [Example 142, N-methyl-N-(1-(trans-5-(methyl(5-(pyrrolidin-1-yl)-2-(trifluoromethyl)benzyl)amino)octahydrocyclopenta[c]pyrrole-2-carbonyl)-1H-pyrazol-4-yl)acetamide]
≥ 75%	≥ 75%	≤ 100 nM	≤ 100 nM	CC(=O)N(C)c1cnn(C(=O)N2CCC3(CC2)CN(Cc2cccc(Oc4ccccc4)c2)C3)c1 [Example 235, N-methyl-N-(1-(2-(3-phenoxybenzyl)-2,7-diazaspiro[3.5]nonane-7-carbonyl)-1H-pyrazol-4-yl)acetamide]
≥ 75%	≥ 75%	100 to 1000 nM	100 to 1000 nM	CC(=O)N(C)c1cnn(C(=O)N2CCC3(CCN(Cc4ccc(C(F)(F)F)cc4)C3)C2)c1 (centres unmarked) [Example 2, N-methyl-N-(1-(7-(4-(trifluoromethyl)benzyl)-2,7-diazaspiro[4.4]nonane-2-carbonyl)-1H-pyrazol-4-yl)acetamide]
0 to 25%	≥ 75%	–	–	COc1ccccc1CN1CC2(CCN(C(=O)n3cc(N(C)C(C)=O)cn3)CC2)C1 [Example 43, N-(1-(2-(2-methoxybenzyl)-2,7-diazaspiro[3.5]nonane-7-carbonyl)-1H-pyrazol-4-yl)-N-methylacetamide]
≥ 75%	≥ 75%	–	–	CC(=O)N(C)c1cnn(C(=O)N2C[C@H]3C[C@@H](N(C)Cc4cc(Cl)ccc4Cl)C[C@H]3C2)c1 [Example 162, N-(1-(cis-5-((2,5-dichlorobenzyl)(methyl)amino)octahydrocyclopenta[c]pyrrole-2-carbonyl)-1H-pyrazol-4-yl)-N-methylacetamide]
≥ 75%	50 to 75%	1000 to 10000 nM	≤ 100 nM	CS(=O)(=O)Nc1cnn(C(=O)N2CCN(Cc3ccc(-c4ncco4)cc3C(F)(F)F)CC2)c1 [Example 303, N-(1-(4-(4-(oxazol-2-yl)-2-(trifluoromethyl)benzy)piperazine-1-carbonyl)-1H-pyrazol-4-yl)methanesulfonamide]
≥ 75%	25 to 50%	–	–	CC(=O)N(C)c1cnn(C(=O)N2CCC3(CCN(Cc4cccc(N5CCCC5)c4)C3)C2)c1 (centres unmarked) [Example 82, N-methyl-N-(1-(7-(3-(pyrrolidin-1-yl)benzyl)-2,7-diazaspiro[4.4]nonane-2-carbonyl)-1H-pyrazol-4-yl)acetamide]
≥ 75%	≥ 75%	–	–	CS(=O)(=O)Nc1cnn(C(=O)N2CCC3(CCN(Cc4cc(Cl)ccc4C(F)(F)F)C3)CC2)c1 [Example 276, N-(1-(2-(5-chloro-2-(trifluoromethyl)benzyl)-2,8-diazaspiro[4.5]decane-8-carbonyl)-1H-pyrazol-4-yl)methanesulfonamide]
≥ 75%	≥ 75%	≤ 100 nM	100 to 1000 nM	CC(=O)N(C)c1cnn(C(=O)N2CCC3(CCN(Cc4ccc(N5CCOCC5)cc4Cl)C3)C2)c1 (centres unmarked) [Example 4, N-(1-(7-(2-chloro-4-morpholinobenzyl)-2,7-diazaspiro[4.4]nonane-2-carbonyl)-1H-pyrazol-4-yl)-N-methylacetamide]
–	–	≤ 100 nM	≤ 100 nM	CC(=O)N(C)c1cnn(C(=O)N2CCC3(CCN(Cc4cc(Cl)ccc4Cl)C3)C2)c1 (single isomer, unassigned) [Example 177, N-(1-(7-(2,5-dichlorobenzyl)-2,7-diazaspiro[4.4]nonane-2-carbonyl)-1H-pyrazol-4-yl)-N-methylacetamide]
≥ 75%	≥ 75%	≤ 100 nM	≤ 100 nM	CC(=O)N(C)c1cnn(C(=O)N2CC3CN(Cc4ccc(Cl)c(C(F)(F)F)c4)CC3C2)c1 (centres unmarked) [Example 98, N-(1-(5-(4-chloro-3-(trifluoromethyl)benzyl)octahydropyrrolo[3,4-c]pyrrole-2-carbonyl)-1H-pyrazol-4-yl)-N-methylacetamide]
≥ 75%	50 to 75%	–	–	CC(=O)N(C)c1cnn(C(=O)N2CC3(CCN(Cc4cccc(Cl)c4)CC3)C2)c1 [Example 85, N-(1-(7-(3-chlorobenzyl)-2,7-diazaspiro[3.5]nonane-2-carbonyl)-1H-pyrazol-4-yl)-N-methylacetamide]
≥ 75%	≥ 75%	–	–	CC(=O)N(C)c1cnn(C(=O)N2CC3CN(Cc4ccc(-c5cnccn5)cc4Cl)CC3C2)c1 (centres unmarked) [Example 266, N-(1-(5-(2-chloro-4-(pyrazin-2-yl)benzyl)octahydropyrrolo[3,4-c]pyrrole-2-carbonyl)-1H-pyrazol-4-yl)-N-methylacetamide]
≥ 75%	≥ 75%	100 to 1000 nM	100 to 1000 nM	CC(=O)N(C)c1cnn(C(=O)N2C[C@H]3C[C@@H](N(C)Cc4ccc(Cl)cc4)C[C@H]3C2)c1 [Example 143, N-(1-(cis-5-((4-chlorobenzyl)(methyl)amino)octahydrocyclopenta[c]pyrrole-2-carbonyl)-1H-pyrazol-4-yl)-N-methylacetamide]
≥ 75%	≥ 75%	≤ 100 nM	≤ 100 nM	CC(=O)N(C)c1cnn(C(=O)N2CC3CN(Cc4cccc(C(F)(F)F)c4)CC3C2)c1 (centres unmarked) [Example 117, N-methyl-N-(1-(5-(3-(trifluoromethyl)benzyl)octahydropyrrolo[3,4-c]pyrrole-2-carbonyl)-1H-pyrazol-4-yl)acetamide]
≥ 75%	25 to 50%	100 to 1000 nM	1000 to 10000 nM	CC(=O)N(C)c1cnn(C(=O)N2C[C@H]3C[C@@H](N(C)Cc4ccccc4Cl)C[C@H]3C2)c1 [Example 139, N-(1-(cis-5-((2-chlorobenzyl)(methyl)amino)octahydrocyclopenta[c]pyrrole-2-carbonyl)-1H-pyrazol-4-yl)-N-methylacetamide]
≥ 75%	≥ 75%	100 to 1000 nM	100 to 1000 nM	CC(=O)N(C)c1cnn(C(=O)N2C[C@H]3C[C@H](NCc4ccccc4Cl)C[C@H]3C2)c1 [Example 136, N-(1-(trans-5-(2-chlorobenzylamino)octahydrocyclopenta[c]pyrrole-2-carbonyl)-1H-pyrazol-4-yl)-N-methylacetamide]
≥ 75%	25 to 50%	–	–	Cc1noc(-c2ccc(CN3CCN(C(=O)n4cc(NS(C)(=O)=O)cn4)CC3)c(C(F)(F)F)c2)n1 [Example 307, N-(1-(4-(4-(3-methyl-1,2,4-oxadiazol-5-yl)-2-(trifluoromethyl)benzyl)piperazine-1-carbonyl)-1H-pyrazol-4-yl)methanesulfonamide]
≥ 75%	≥ 75%	≤ 100 nM	100 to 1000 nM	COc1cc(-c2ccccc2)ccc1CN1CCN(C(=O)n2cc(NS(C)(=O)=O)cn2)CC1 [Example 220, N-(1-(4-((3-methoxy-[1,1′-biphenyl]-4-yl)methyl)piperazine-1-carbonyl)-1H-pyrazol-4-yl)methanesulfonamide]
≥ 75%	≥ 75%	–	–	CC(=O)N(C)c1cnn(C(=O)N2CC3CN(Cc4ccc(OC(C)C)cc4C(F)(F)F)CC3C2)c1 (centres unmarked) [Example 255, N-(1-(5-(4-isopropoxy-2-(trifluoromethyl)benzyl)octahydropyrrolo [3,4-c]pyrrole-2-carbonyl)-1H-pyrazol-4-yl)-N-methylacetamide]
≥ 75%	≥ 75%	–	–	CC(=O)N(C)c1cnn(C(=O)N2C[C@H]3C[C@H](N(C)Cc4cc(Cl)ccc4Cl)C[C@H]3C2)c1 [Example 165, N-(1-(trans-5-((2,5-dichlorobenzyl)(methyl)amino)octahydrocyclopenta[c]pyrrole-2-carbonyl)-1H-pyrazol-4-yl)-N-methylacetamide]
